Test [1] concerns KB epidermoid nasopharynx. Briefly: Cytotoxicity, KB growth. It is filed as cell-based, human. The note with it: concentration inhibiting 50% of cell growth. From the text: (§1) CYTOTOXlCITY OF POLY(PHENOLIC)SULFONATES AND THEIR SODIUM SALTS IN L1210 LYMPHOID LEUKEMIA CELLS Fei Wang, Amy E. Warren, Cheryl R. Barnes and Iris H. Hall* Division of Medicinal Chemistry and Natural Products University of North Carolina Chapel Hill, N.C. […] Because ofthese properties it was surmised that these poly(phenolic)sulfonated compounds may have antineoplastic activity. METHODS Source of Compounds Test compounds were supplied by GeneLabs, Inc. [Redwood City, CA [Table 1]. Radioisotopes were obtained from New England Nuclear [Dupont, Boston, MA]. Substrates and co-factors were purchased om Sigma Chemical Co., [St Louis, MO]. Pentosan sulfate and other antineoplastic standards were obtained from Sigma Chemical Co. Tumor lines were obtained from American Type Culture Collection [Rockville, MD]. […] Cell numbers were determined by the trypan blue exclusion technique. Solid tumor cytotoxicity was determined by Leibovitz et al. 's method utilizing crystal violeeOH and read at 562 nm (Molecular Devices). Values for cytotoxicity were expressed as EDs0 g/ml, i.e. the concentration ofthe compound inhibiting 50% ofcell growth. […] Incorporation of 4C- formate (53.0 mCi/mmol) into pyrimidines was determined by the method of Christopherson et al.[13]. […] DNA polymerase Ot activity was determined in cytoplasmic extracts isolated by Eichler et aL's method. […] Messenger-, ribosomal- and transfer-RNA polymerase enzymes were isolated with different concentrations of ammonium sulfate; individual RNA polymerase activities were determined using 3H -UTP 16,17]. Ribonucleoside reductase activity was measured using 4C -CDP with dithioerythritol. […]

In another test the test system is HeLa cells. More on the design: method as in ref 38. The settings on record: HeLa cells ref 38; cited from earlier work.
Another test has as its target DNA polymerase. More on the design: method as in ref 40. The settings on record: non-competitively; enzyme name lost ref 40; read-out: inhibition of second DNA polymerase activity; cited from earlier work.
For a further test, the target named is DNA polymerase α. Details: method as in ref 40. The note with it: non-competitively ref 40; read-out: inhibition of DNA polymerase α activity; cited from earlier work.
For another test, the system named is DC-3F. Details: method as in ref 41. The settings on record: cited from earlier work.
Test [2] has as its system Rauscher leukemic virus, Moloney murine sarcoma virus and avian myeloblastosis reverse transcriptase. The note with it: cited from earlier work.
In a further test the test system is SV40 replication. Details: method as in ref 38. The settings on record: in HeLa cells ref 38; cited from earlier work.
The test system of test [3] is DC-3F/9-OH-E (resistant 9-hydroellipticine subline). More on the design: method as in ref 41. The settings on record: cited from earlier work.
Test [4] concerns murine L1210 lymphoid leukemia. Type of test: cell-based, mouse. The settings on record: concentration inhibiting 50% of cell growth. From the text: (§2) CYTOTOXlCITY OF POLY(PHENOLIC)SULFONATES AND THEIR SODIUM SALTS IN L1210 LYMPHOID LEUKEMIA CELLS Fei Wang, Amy E. Warren, Cheryl R. Barnes and Iris H. Hall* Division of Medicinal Chemistry and Natural Products University of North Carolina Chapel Hill, N.C. […] Because ofthese properties it was surmised that these poly(phenolic)sulfonated compounds may have antineoplastic activity. METHODS Source of Compounds Test compounds were supplied by GeneLabs, Inc. [Redwood City, CA [Table 1]. Radioisotopes were obtained from New England Nuclear [Dupont, Boston, MA]. Substrates and co-factors were purchased om Sigma Chemical Co., [St Louis, MO]. Pentosan sulfate and other antineoplastic standards were obtained from Sigma Chemical Co. Tumor lines were obtained from American Type Culture Collection [Rockville, MD]. 147 Vol. 5, No. 3, 1998 Cytotoxicity ofSodium Poly(Phenolic)Sulfonates in L1210 Lymphoid Leukemia Cells Table 1 Structures of Poly(phenolic)sulfonate Compounds O2R" n Compound R' R" n MW # G1-2041 H OH 8 1489.46 G1-2029 H OH 6 1117.09 G1-2030 H OH 4 744.73 GI-2021 CH3 ONa 8 1777.5 G1-2057 CH3 ONa 4 888.75 GI-2158 CH3 ONa 6 1333.13 GI-2063 OCH3 ONa 8 2001.65 G1-2042 OAc ONa 8 2017.73 Cytotoxicity Poly(phenolic)sulfonates were tested for cytotoxic activity by homogenizing drug in 0.05% Tween 80/H20 to give a mg/ml stock concentration. These solutions were sterilized by passing them through an acrodisc ([…]). The following cell lines were maintained by literature techniques: murine L1210 lymphoid leukemia, P-388 lymphocytic leukemia, rat UMR 106 osteosarcoma, human Tmolt3 acute lymphoblastic T cell leukemia, HUT-8 lymphoma, HeLa-S suspended cervical carcinoma, HeLa solid cervical carcinoma, KB epidermoid nasopharynx, A431 epidermoid carcinoma, colorectal adenocarcinoma SW480, HCT-8 ileocecal adenocarcinoma, lung bronchogenic MB-9812, A549 lung carcinoma, and glioma HS683. Geran et al.'s protocol was used to assess the cytotoxicity of the compounds and standards in each cell line. Cell numbers were determined by the trypan blue exclusion technique. Solid tumor cytotoxicity was determined by Leibovitz et al. 's method utilizing crystal violeeOH and read at 562 nm (Molecular Devices). Values for cytotoxicity were expressed as EDs0 g/ml, i.e. the concentration ofthe compound inhibiting 50% ofcell growth. A value of less than 4 µg/ml was required for significant activity ofgrowth inhibition. Incorporation Studies Incorporation of labeled precursors into 3H-DNA, 3H -RNA and 3H -protein for 10 L1210 cells was obtained. The concentration response for inhibition of DNA, RNA and protein synthesis of the compounds at 25, 50 and 100 l.tM was determined for 60 min incubations. Incorporation of 14C -glycine (53.0 mCi/mmol) into purines was obtained by the method of Cadman et al.[12]. Incorporation of 4C- formate (53.0 mCi/mmol) into pyrimidines was determined by the method of Christopherson et al.[13]. Enzyme Assays Inhibition of various enzyme activities was performed by first preparing the appropriate L1210 cell homogenates or subcellular fractions, then adding the drug to be tested during the enzyme assay. For the concentration response studies, inhibition of enzyme activity was determined at 25, 50 and 100 l.tM of compounds G1-2021, G1-2029, GI-2041 and G1-2063 after 60 min incubations. DNA polymerase Ot activity was determined in cytoplasmic extracts isolated by Eichler et aL's method. The DNA polymerase assay was described by Sedwick et al.[15] using 3H-TTP. Messenger-, ribosomal- and transfer-RNA polymerase enzymes were isolated with different concentrations of ammonium sulfate; individual RNA polymerase activities were determined using 3H -UTP 16,17]. Ribonucleoside reductase activity was measured using 4C -CDP with dithioerythritol. The deoxyribonucleotides 4C -dCDP were separated from the ribonucleotides by TLC on PEI plates. […]

The test system of test [5] is HeLa-S suspended cervical carcinoma. Briefly: Cytotoxicity, HeLa-S3 growth. It is filed as cell-based, human. The settings on record: concentration inhibiting 50% of cell growth.
Text: as §1, with “MO].” for “MO]. Pentosan sulfate and other antineoplastic standards were obtained from Sigma Chemical Co. Tumor lines were obtained from American Type Culture Collection [Rockville, MD].”, “16,17].” for “16,17]. Ribonucleoside reductase activity was measured using 4C -CDP with dithioerythritol.”

The test system of test [6] is lung bronchogenic MB-9812. Description: Cytotoxicity, MB-9812 growth. Type of test: cell-based, human.
Text: as §1, with “MO].” for “MO]. Pentosan sulfate and other antineoplastic standards were obtained from Sigma Chemical Co. Tumor lines were obtained from American Type Culture Collection [Rockville, MD].”, “16,17].” for “16,17]. Ribonucleoside reductase activity was measured using 4C -CDP with dithioerythritol.”

The subject of test [7] is human Tmolt3 acute lymphoblastic T cell leukemia. Description: Cytotoxicity, Tmolt3 growth. It is filed as cell-based. The settings on record: concentration inhibiting 50% of cell growth.
Text: as §1, with “MO].” for “MO]. Pentosan sulfate and other antineoplastic standards were obtained from Sigma Chemical Co. Tumor lines were obtained from American Type Culture Collection [Rockville, MD].”, “16,17].” for “16,17]. Ribonucleoside reductase activity was measured using 4C -CDP with dithioerythritol.”

Test [8] has as its system colorectal adenocarcinoma SW480. Briefly: Cytotoxicity, SW480 growth. Type of test: cell-based, human.
Text: as §2, with “Geran et al.'s protocol was used to assess the cytotoxicity of the compounds and standards in each cell line.” left out, “A value of less than 4 µg/ml was required for significant activity ofgrowth inhibition. Incorporation Studies Incorporation of labeled precursors into 3H-DNA, 3H -RNA and 3H -protein for 10 L1210 cells was obtained. The concentration response for inhibition of DNA, RNA and protein synthesis of the compounds at 25, 50 and 100 l.tM was determined for 60 min incubations. Incorporation of 14C -glycine (53.0 mCi/mmol) into purines was obtained by the method of Cadman et al.[12].” left out, “Enzyme Assays Inhibition of various enzyme activities was performed by first preparing the appropriate L1210 cell homogenates or subcellular fractions, then adding the drug to be tested during the enzyme assay. For the concentration response studies, inhibition of enzyme activity was determined at 25, 50 and 100 l.tM of compounds G1-2021, G1-2029, GI-2041 and G1-2063 after 60 min incubations.” left out, “The DNA polymerase assay was described by Sedwick et al.[15] using 3H-TTP.” left out, “dithioerythritol.” for “dithioerythritol. The deoxyribonucleotides 4C -dCDP were separated from the ribonucleotides by TLC on PEI plates.”

Turning to `COc1c2cc(S(=O)(=O)[O-])cc1Cc1cc(S(=O)(=O)[O-])cc(c1OC)Cc1cc(S(=O)(=O)[O-])cc(c1OC)Cc1cc(S(=O)(=O)[O-])cc(c1OC)Cc1cc(S(=O)(=O)[O-])cc(c1OC)Cc1cc(S(=O)(=O)[O-])cc(c1OC)C2.[Na+].[Na+].[Na+].[Na+].[Na+].[Na+]` [GI-2158], the ED50 in test [1] is 3.24 µg/mL.
With `Cc1ccc(C(=O)Nc2ccc(S(=O)(=O)O)c3cc(S(=O)(=O)O)cc(S(=O)(=O)O)c23)cc1NC(=O)c1cccc(NC(=O)Nc2cccc(C(=O)Nc3cc(C(=O)Nc4ccc(S(=O)(=O)O)c5cc(S(=O)(=O)O)cc(S(=O)(=O)O)c45)ccc3C)c2)c1` [suramin], the “concentration required to cause death” value in the test with HeLa cells is 250 µg/mL. Moreover, the values for the IC50 on DNA polymerase and at DNA polymerase α were 36 µM and 8 µM, respectively. The ED50 was 31 µM in the test with DC-3F and 203 µM in [3]. In addition, the “concentration inhibiting reverse transcriptase activities” value in test [2] is 0.1 µg/mL. In addition, the “concentration required to inhibit SV40 replication” value in the test on SV40 replication is 40 µM.
In the case of pentosan sulfate [reference compound], the ED50 in test [4], in test [5] and in [7] was less than 3 µg/mL throughout. In addition, in test [6], the “growth suppression, in words” value is listed as “suppressed moderately”.
On to `O=S(=O)(O)c1cc2c(O)c(c1)Cc1cc(S(=O)(=O)O)cc(c1O)Cc1cc(S(=O)(=O)O)cc(c1O)Cc1cc(S(=O)(=O)O)cc(c1O)C2` [GI-2030], for which the “activity, in words” value in test [8] was “active”. In test [8] (concentration inhibiting 50% of cell growth), the ED50 result is recorded as “less than 2 μg/ml”.
